# Test results taken from US12404283B2, “c-MYC mRNA translation modulators and uses thereof in the treatment of cancer” (Anima Biotech Inc., priority 2022, dated 2025).
# Where a name gives a salt, the structure may show the parent alone.
# Test system: c-Myc
# Assay: c-Myc immunofluorescence assay
# Assay type: cell-based, human
# Details: A549 cells, 24 hours treatment, anti-c-Myc immunofluorescence
# Method: A549 human non-small cell lung carcinoma cells were treated for 24 hours with increasing compound concentration, cells were fixed and stained with a nuclei stain (DAPI) and anti-c-Myc fluorescent antibody. The c-Myc signal was quantified by image analysis, and data was exported and analyzed using TIBCO Spotfire® (TIBCO Corporation). Dose response curves were generated and fitted with logaristic regression to calculate potency (EC50 values). Potency values are presented in Table 2 for all compounds and are shown for selected compounds (FIG. 4).
# A549 cells were grown in 384-wells plates (Perkin Elmer, Cat. 6057300) for 48 hours, treated with compounds and then fixed for 20 min in 4% paraformaldehyde. After that permeabilization was done using 0.1% Triton X-100 in PBS for 20 min. Primary anti-c-Myc antibody (Abcam, ab32072) staining was performed for 90 min at room temperature. Cells then were washed twice with PBS and incubated with secondary antibody (Abcam, ab150075) for 90 min at room temperature. Nuclei were stained with DAPI for 10 min and washed twice with PBS.
# Cell images were taken with Operetta (Perkin Elmer, USA), a wide-field fluorescence microscope at 20× magnification. After acquisition, the images were transferred to Columbus software (Perkin-Elmer) for image analysis. In Columbus, cells were identified by their nucleus, using the “Find Nuceli” module and cytoplasm was detected based on the secondary antibody channel. Subsequently, the fluorescent signal was enumerated in the identified cell region. Then data was exported to a data analysis and visualization software, Tibco Spotfire, USA.
row,Compound,Myc Efficacy (−LogEC50)
1,"CN1CCC(NC(=O)c2ccc3c(c2)sc2nc(-c4ccc([C@@H]5C[C@@H](O)CN5)cc4F)cn23)CC1 [Compound 522R, 2-(2-fluoro-4-((2S,4R)-4-hydroxypyrrolidin-2-yl)phenyl)-N-(1-methylpiperidin-4-yl)benzo[d]imidazo[2,1-b]thiazole-7-carboxamide]",+++ (+++ ≥6)
2,"CN1CCC(NC(=O)c2ccc3c(c2)sc2nc(-c4ccc([C@@H]5C[C@H](O)CN5)cc4F)cn23)CC1 [Compound 522S, 2-(2-fluoro-4-((2S,4S)-4-hydroxypyrrolidin-2-yl)phenyl)-N-(1-methylpiperidin-4-yl)benzo[d]imidazo[2,1-b]thiazole-7-carboxamide]",+++ (+++ ≥6)
3,"O=C(NC1CCCOC1)c1ccc2c(c1)sc1nc(-c3ccc(C4CCCN4)cc3F)cn12 (stereo not shown) [Compound 525, 2-(2-fluoro-4-(pyrrolidin-2-yl)phenyl)-N-(tetrahydro-2H-pyran-3-yl)benzo[d]imidazo[2,1-b]thiazole-7-carboxamide]",+++ (+++ ≥6)
4,"O=C(NC1CCOCC1)c1ccc2c(c1)sc1nc(-c3ccc(C4CCNCC4)cc3F)cn12 [Compound 529, 2-(2-fluoro-4-(piperidin-4-yl)phenyl)-N-(tetrahydro-2H-pyran-4-yl)benzo[d]imidazo[2,1-b]thiazole-7-carboxamide]",+++ (+++ ≥6)
5,"O=C(NC1CCOCC1)c1ccc2c(c1)sc1nc(-c3ccc(C4COCCN4)cc3F)cn12 (stereo not shown) [Compound 534, 2-(2-fluoro-4-(morpholin-3-yl)phenyl)-N-(tetrahydro-2H-pyran-4-yl)benzo[d]imidazo[2,1-b]thiazole-7-carboxamide]",+++ (+++ ≥6)
6,"O=C(NC1CCOCC1)c1ccc2c(c1)sc1nc(-c3ccc(C4CNCCO4)cc3F)cn12 (stereo not shown) [Compound 535, 2-(2-fluoro-4-(morpholin-2-yl)phenyl)-N-(tetrahydro-2H-pyran-4-yl)benzo[d]imidazo[2,1-b]thiazole-7-carboxamide]",+++ (+++ ≥6)
7,"CN1CCC(NC(=O)c2ccc3c(c2)sc2nc(-c4ccc(C5(F)CCNCC5)cc4F)cn23)CC1 [Compound 536, 2-(2-fluoro-4-(4-fluoropiperidin-4-yl)phenyl)-N-(1-methylpiperidin-4-yl)benzo[d]imidazo[2,1-b]thiazole-7-carboxamide]",+++ (+++ ≥6)
8,"O=C1CNC(c2ccc(-c3cn4c(n3)sc3cc(C(=O)NC5CCOCC5)ccc34)c(F)c2)C1 (stereo not shown) [Compound 537, 2-(2-fluoro-4-(4-oxopyrrolidin-2-yl)phenyl)-N-(tetrahydro-2H-pyran-4-yl)benzo[d]imidazo[2,1-b]thiazole-7-carboxamide]",+++ (+++ ≥6)
9,"NC(CO)c1ccc(-c2cn3c(n2)sc2cc(C(=O)NCCCN4CCC(F)CC4)ccc23)c(F)c1 (stereo not shown) [Compound 539, 2-(4-(1-amino-2-hydroxyethyl)-2-fluorophenyl)-N-(3-(4-fluoropiperidin-1-yl)propyl)benzo[d]imidazo[2,1-b]thiazole-7-carboxamide]",+++ (+++ ≥6)
10,"O=C(NCCCN1CCC(F)CC1)c1ccc2c(c1)sc1nc(-c3ccc(C4CC(C(F)F)CN4)cc3F)cn12 (stereo not shown) [Compound 542, 2-(4-(4-(difluoromethyl)pyrrolidin-2-yl)-2-fluorophenyl)-N-(3-(4-fluoropiperidin-1-yl)propyl)benzo[d]imidazo[2,1-b]thiazole-7-carboxamide]",+++ (+++ ≥6)
11,"O=C(NCCCN1CCC(F)CC1)c1ccc2c(c1)sc1nc(-c3ccc(C4CCNO4)cc3F)cn12 (stereo not shown) [Compound 543, 2-(2-fluoro-4-(isoxazolidin-5-yl)phenyl)-N-(3-(4-fluoropiperidin-1-yl)propyl)benzo[d]imidazo[2,1-b]thiazole-7-carboxamide]",+++ (+++ ≥6)
12,"CN1CCC(NC(=O)c2ccc3c(c2)sc2nc(-c4ccc(N5CCNCC5)cc4F)cn23)CC1 [Compound 547, 2-(2-fluoro-4-(piperazin-1-yl)phenyl)-N-(1-methylpiperidin-4-yl)benzo[d]imidazo[2,1-b]thiazole-7-carboxamide]",+++ (+++ ≥6)
13,"CC(=O)Nc1ccc2c(c1)sc1nc(-c3ccc(C4CCCN4)cc3F)cn12 (stereo not shown) [Compound 548, N-(2-(2-fluoro-4-(pyrrolidin-2-yl)phenyl)benzo[d]imidazo[2,1-b]thiazol-7-yl)acetamide]",+++ (+++ ≥6)
14,"CN1CCC(C(=O)Nc2ccc3c(c2)sc2nc(-c4ccc(C5CCCN5)cc4F)cn23)CC1 (stereo not shown) [Compound 593, N-(2-(2-fluoro-4-(pyrrolidin-2-yl)phenyl)benzo[d]imidazo[2,1-b]thiazol-7-yl)-1-methylpiperidine-4-carboxamide dihydrochloride]",+++ (+++ ≥6)
15,"O=C(Nc1ccc2c(c1)sc1nc(-c3ccc(C4CCCN4)cc3F)cn12)C1CCOCC1 (stereo not shown) [Compound 594, N-(2-(2-fluoro-4-(pyrrolidin-2-yl)phenyl)benzo[d]imidazo[2,1-b]thiazol-7-yl)tetrahydro-2H-pyran-4-carboxamide hydrochloride]",+++ (+++ ≥6)
16,"O=C(NCCCN1CCC(F)CC1)c1ccc2c(c1)sc1nc(-c3cc4c(cc3F)CCNC4)cn12 [Compound 600, 2-(6-fluoro-1,2,3,4-tetrahydroisoquinolin-7-yl)-N-(3-(4-fluoropiperidin-1-yl)propyl)benzo[d]imidazo[2,1-b]thiazole-7-carboxamide dihydrochloride]",+++ (+++ ≥6)

row,Compound,Myc Efficacy (−LogEC50)
1,"O=C(NCCCN1CCC(F)CC1)c1ccc2c(c1)sc1nc(-c3cc4c(cc3F)NCC4)cn12 [Compound 602, 2-(6-fluoroindolin-5-yl)-N-(3-(4-fluoropiperidin-1-yl)propyl)benzo[d]imidazo[2,1-b]thiazole-7-carboxamide]",+++ (+++ ≥6)
2,"O=C(NCCCN1CCCCC1)c1ccc2c(c1)sc1nc(-c3ccccc3)cn12 [compound 101, 2-phenyl-N-(3-(piperidin-1-yl)propyl)benzo[d]imidazo[2,1-b]thiazole-7-carboxamide]",+++ (+++ ≥6)
3,"Cc1ccc(-c2cn3c(n2)sc2cc(C(=O)N4CCCCCC4)ccc23)cc1 [compound 102, Azepan-1-yl(2-(p-tolyl)benzo[d]imidazo[2,1-b]thiazol-7-yl)methanone]",+ (+ >3 and <5)
4,"O=C(NCCCN1CCCCCC1)c1ccc2c(c1)sc1nc(-c3ccccc3)cn12 [compound 103, N-(3-(azepan-1-yl)propyl)-2-phenylbenzo[d]imidazo[2,1-b]thiazole-7-carboxamide]",+++ (+++ ≥6)
5,"O=C(c1ccc2c(c1)sc1nc(-c3ccc(F)cc3)cn12)N1CCCCCC1 [compound 104, azepan-1-yl(2-(4-fluorophenyl)benzo[d]imidazo[2,1-b]thiazol-7-yl)methanone]",+ (+ >3 and <5)
6,"CCCSCCCNC(=O)c1ccc2c(c1)sc1nc(-c3ccc(F)cc3)cn12 [compound 105, 2-(4-fluorophenyl)-N-(3-(propylthio)propyl)benzo[d] imidazo[2,1-b]thiazole-7-carboxamide]",+ (+ >3 and <5)
7,"CCOc1ccc(-c2cn3c(n2)sc2cc(C(=O)N4CCCCCC4)ccc23)cc1 [compound 106, azepan-1-yl(2-(4-ethoxyphenyl)benzo[d]imidazo[2,1-b]thiazol-7-yl)methanone]",+ (+ >3 and <5)
8,"CCN(CC)CCCNC(=O)c1ccc2c(c1)sc1nc(-c3ccccc3)cn12 [compound 107, N-(3-(diethylamino)propyl)-2-phenylbenzo[d]imidazo [2,1-b]thiazole-7-carboxamide]",++ (++ ≥5 and <6)
9,"CCCNC(=O)c1ccc2c(c1)sc1nc(-c3ccc(C)cc3)cn12 [compound 108, N-propyl-2-(p-tolyl)benzo[d]imidazo[2,1-b]thiazole-7-carboxamide]",++ (++ ≥5 and <6)
10,"CCNC(=O)c1ccc2c(c1)sc1nc(-c3ccc(C)cc3)cn12 [compound 109, N-ethyl-2-(p-tolyl)benzo[d]imidazo[2,1-b]thiazole-7-carboxamide]",++ (++ ≥5 and <6)
11,"CC(=O)NCCCNC(=O)c1ccc2c(c1)sc1nc(-c3ccc(C)cc3)cn12 [compound 110, N-(3-acetamidopropyl)-2-(p-tolyl)benzo[d]imidazo[2,1-b]thiazole-7-carboxamide]",− (− ≤3)
12,"CCN(CC)CCCNC(=O)c1ccc2c(c1)sc1nc(-c3ccc(Cl)cc3)cn12 [compound 111, 2-(4-chlorophenyl)-N-(3-(diethylamino)propyl)benzo [d]imidazo[2,1-b]thiazole-7-carboxamide]",++ (++ ≥5 and <6)
13,"Cc1ccc(-c2cn3c(n2)sc2cc(C(=O)NC[C@H]4CCNC4)ccc23)cc1 [compound 114, (S)-N-(pyrrolidin-3-ylmethyl)-2-(p-tolyl)benzo[d]imidazo[2,1-b]thiazole-7-carboxamide formate]",++ (++ ≥5 and <6)
14,"Cc1ccc(-c2cn3c(n2)sc2cc(C(=O)NCCCN)ccc23)cc1 [compound 115, N-(3-aminopropyl)-2-(p-tolyl)benzo[d]imidazo[2,1-b]thiazole-7-carboxamide]",+ (+ >3 and <5)
15,"Cc1ccc(-c2cn3c(n2)sc2cc(C(=O)NC[C@@H]4CCNC4)ccc23)cc1 [compound 116, (R)-N-(pyrrolidin-3-ylmethyl)-2-(p-tolyl)benzo[d]imidazo [2,1-b]thiazole-7-carboxamide formate]",++ (++ ≥5 and <6)
